Like-named read-outs stand apart in the source and are kept apart here.
Tests used:
MST1 = MST1 (Homo sapiens (Human), UniProt Q13043); assay: MST1 biochemical LanthaScreen Eu Kinase Binding Assay
Protocol: (§1) MST1 and MST2 biochemical LanthaScreen Eu Kinase Binding Assay was based on the binding and displacement of kinase tracer to the kinase of interest. Compounds in 1000×DMSO stock solution was dispensed using automated dispensing system (Labcyte) to 384 well Corning Microplate at 15 nL, 5 uL of Kinase buffer A was added to each well. Plates were shaken and incubated for 1 min to ensure well dissolution of compounds.

MST2 = MST2 (Homo sapiens (Human), UniProt Q13188); assay: MST2 biochemical LanthaScreen Eu Kinase Binding Assay
Protocol: as §1

[1] = read-out: Kinase Binding assay-MST1 IC50
[2] = read-out: Kinase Binding assay-MST2 IC50

MST1, sequence (Q13043 whole entry): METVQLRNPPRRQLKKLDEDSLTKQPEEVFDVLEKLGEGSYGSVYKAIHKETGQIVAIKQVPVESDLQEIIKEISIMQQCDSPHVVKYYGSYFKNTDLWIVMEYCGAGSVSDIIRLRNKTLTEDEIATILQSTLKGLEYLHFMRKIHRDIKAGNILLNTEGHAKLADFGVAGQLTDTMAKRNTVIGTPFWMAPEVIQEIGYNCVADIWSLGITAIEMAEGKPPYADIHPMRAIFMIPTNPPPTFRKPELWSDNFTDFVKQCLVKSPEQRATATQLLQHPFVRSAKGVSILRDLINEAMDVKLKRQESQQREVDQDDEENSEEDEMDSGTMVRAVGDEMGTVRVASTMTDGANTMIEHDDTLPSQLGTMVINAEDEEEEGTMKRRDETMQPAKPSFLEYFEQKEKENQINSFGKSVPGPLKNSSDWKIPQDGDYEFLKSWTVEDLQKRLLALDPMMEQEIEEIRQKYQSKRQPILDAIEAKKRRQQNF
MST2, sequence (Q13188 whole entry): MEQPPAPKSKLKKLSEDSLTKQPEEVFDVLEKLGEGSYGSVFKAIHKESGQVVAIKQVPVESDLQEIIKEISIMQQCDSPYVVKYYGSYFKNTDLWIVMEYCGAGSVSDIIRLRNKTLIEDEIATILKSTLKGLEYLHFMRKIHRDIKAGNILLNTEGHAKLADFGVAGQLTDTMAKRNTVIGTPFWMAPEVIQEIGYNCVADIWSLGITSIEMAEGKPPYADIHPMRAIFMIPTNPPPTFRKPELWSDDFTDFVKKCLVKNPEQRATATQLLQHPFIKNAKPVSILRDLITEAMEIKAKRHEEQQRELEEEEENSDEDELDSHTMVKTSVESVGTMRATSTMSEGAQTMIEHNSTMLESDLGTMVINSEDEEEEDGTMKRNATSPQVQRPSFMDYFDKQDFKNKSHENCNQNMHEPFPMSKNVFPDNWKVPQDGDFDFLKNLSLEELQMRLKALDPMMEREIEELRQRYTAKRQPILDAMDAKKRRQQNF

| Structure (SMILES) | IC50 (MST1; [1]) [nM] | IC50 (MST2; [2]) [nM] | IC50 (MST2) [nM] | IC50 (MST1) [nM] |
| --- | --- | --- | --- | --- |
| CCOc1cc2ncc(C#N)c(Nc3ccc(OCc4ncccc4C)c(OC)c3)c2cc1NC(=O)/C=C/CN(C)C [Example 92] | < 100 | < 100 |  |  |
| CCOc1cc2ncc(C#N)c(Nc3ccc(OCc4ncccc4OC)c(Cl)c3)c2cc1NC(=O)CCCN(C)C [Example 18] | < 100 |  | 100 to 1000 |  |
| CCOc1cc2ncc(C#N)c(Nc3ccc(OCc4ncccc4C)cc3C(F)(F)F)c2cc1NC(=O)CCCN(C)C [Example 29] |  |  | 100 to 1000 | 100 to 1000 |
| CCOc1cc2ncc(C#N)c(Nc3ccc(OCc4ccccn4)c(Cl)c3)c2cc1NC(=O)CCCN(C)C [Example 8] | < 100 |  | 100 to 1000 |  |
| CCOc1cc2ncc(C#N)c(Nc3ccc(OCc4ncccc4C)c(F)c3)c2cc1NC(=O)CCCN(C)C [Example 22] | < 100 | < 100 |  |  |
| CCOc1cc2ncc(C#N)c(Nc3ccc(OCc4ncccc4C)c(OC)c3)c2cc1NC(=O)CCCN(C)C [Example 28] | < 100 | < 100 |  |  |
| CCOc1cc2ncc(C#N)c(Nc3ccc(OCc4ncccc4C4CC4)c(Cl)c3)c2cc1NC(=O)CCCN(C)C [Example 44] | 100 to 1000 |  | 100 to 1000 |  |
| CCOc1cc2ncc(C#N)c(Nc3cc(Cl)c(OCc4ncccc4C)cc3C)c2cc1NC(=O)CCCN(C)C [Example 78] | < 100 | < 100 |  |  |
| CCOc1cc2ncc(C#N)c(Nc3ccc(NC(=O)c4ncccc4C)c(Cl)c3)c2cc1NC(=O)CCCN(C)C [Example 108, N-(2-chloro-4-(3-cyano-6-(4-(dimethylamino)butanamido)-7-ethoxyquinolin-4-ylamino)phenyl)-3-methylpicolinamide] |  |  | 100 to 1000 | 100 to 1000 |
| Cc1cccnc1COc1ccc(Nc2ccnc3ccc(NC(=O)CCCN(C)C)cc23)c(Cl)c1 [Example 147, N-(4-(2-chloro-4-((3-methylpyridin-2-yl)methoxy)phenylamino)quinolin-6-yl)-4-(dimethylamino)butanamide] | 1000 to 10000 |  | 1000 to 10000 |  |
| CCOc1cc2ncc(C#N)c(Nc3ccc(OCc4ccccn4)c(F)c3)c2cc1NC(=O)CCCN(C)C [Example 9] | 100 to 1000 |  | 100 to 1000 |  |
| CCOc1cc2ncc(C#N)c(Nc3ccc(OCc4ccccn4)c(Cl)c3)c2cc1NC [Example 140, 4-(3-chloro-4-(pyridin-2-ylmethoxy)phenylamino)-7-ethoxy-6-(methylamino)quinoline-3-carbonitrile] |  |  | 1000 to 10000 | 100 to 1000 |
| CCOc1cc2ncc(C#N)c(Nc3ccc(O)cc3C)c2cc1NC(=O)CCCN(C)C [Example 139] | 100 to 1000 |  | 1000 to 10000 |  |
| CCOc1cc2ncc(C#N)c(Nc3ccc(OCc4cccc(Cl)n4)c(Cl)c3)c2cc1NC(=O)CCCN(C)C [Example 7] | < 100 | < 100 |  |  |
| CCOc1cc2ncc(C#N)c(Nc3cc(Cl)c(OCc4ncccc4C)cc3Cl)c2cc1NC(=O)CCCN(C)C [Example 75] | < 100 | < 100 |  |  |
| CCOc1cc2ncc(C#N)c(Nc3ccc(OCc4cc(C)ccn4)c(Cl)c3)c2cc1NC(=O)CCCN(C)C [Example 10] | < 100 |  | 100 to 1000 |  |
| CCOc1cc2ncc(C#N)c(Nc3ccc(OCc4ncccc4Br)c(Cl)c3)c2cc1NC(=O)CCCN(C)C [Example 15] | < 100 | < 100 |  |  |
| CCOc1cc2ncc(C#N)c(Nc3ccc(OCc4ncccc4C)c(C#N)c3)c2cc1NC(=O)CCCN(C)C [Example 27] |  |  | 1000 to 10000 | 100 to 1000 |
| CCOc1cc2ncc(C#N)c(Nc3ccc(OCc4nc(Br)ccc4C)c(Cl)c3)c2cc1NC(=O)CCCN(C)C [Example 76] | < 100 | < 100 |  |  |
| CCOc1cc2ncc(C#N)c(Nc3ccc(OCc4ncc(C)o4)c(Cl)c3)c2cc1NC(=O)CCCN(C)C [Example 39] | < 100 |  | 100 to 1000 |  |
| CCOc1cc2ncc(C#N)c(Nc3ccc(OCc4cn5cccc(C)c5n4)c(Cl)c3)c2cc1NC(=O)CCCN(C)C [Example 41] | < 100 | < 100 |  |  |
| CCOc1cc2ncc(C#N)c(Nc3ccc(OCc4ncccc4C)c(Cl)c3)c2cc1NC(C)=O [Example 84, N-(4-(3-chloro-4-((3-methylpyridin-2-yl)methoxy)phenylamino)-3-cyano-7-ethoxyquinolin-6-yl)acetamide] | < 100 | < 100 |  |  |
| CCOc1cc2ncc(C#N)c(Nc3ccc(OCc4nc(Br)ccc4C)cc3Cl)c2cc1NC(=O)CCCN(C)C [Example 77] | < 100 | < 100 |  |  |
| CCOc1cc2ncc(C#N)c(Nc3cc(C)c(OCc4ncccc4C)cc3C)c2cc1NC(=O)/C=C/CN(C)C [Example 94] | < 100 | < 100 |  |  |
| CCOc1cc2ncc(C#N)c(Nc3ccc(OCc4cccc(C)n4)c(Cl)c3)c2cc1NC(=O)CCCN(C)C [Example 12] | < 100 | < 100 |  |  |
| CCOc1cc2ncc(C#N)c(Nc3ccc(OCc4ncccc4F)c(Cl)c3)c2cc1NC(=O)CCCN(C)C [Example 16] | < 100 | < 100 |  |  |

| Structure (SMILES) | IC50 (MST1; [1]) [nM] | IC50 (MST2; [2]) [nM] | IC50 (MST2) [nM] | IC50 (MST1) [nM] |
| --- | --- | --- | --- | --- |
| CCOc1cc2ncc(C#N)c(Nc3ccc(OCc4ncccc4C)c(OC(F)(F)F)c3)c2cc1NC(=O)CCCN(C)C [Example 80] | 100 to 1000 |  | 100 to 1000 |  |
| CCOc1cc2ncc(C#N)c(Nc3ccc(OCc4ncccc4CC)c(Cl)c3)c2cc1NC(=O)CCCN(C)C [Example 45] | < 100 | < 100 |  |  |
| CCOc1cc2ncc(C#N)c(Nc3ccc(OCc4ccccn4)c(Cl)c3)c2cc1NC(C)=O [Example 85] | < 100 |  | 1000 to 10000 |  |
| CCOc1cc2ncc(C#N)c(Nc3ccc(OCc4cc(C5CC5)on4)c(Cl)c3)c2cc1NC(=O)CCCN(C)C [Example 40] | 100 to 1000 |  | 100 to 1000 |  |
| CCOc1cc2ncc(C#N)c(Nc3ccc(OCc4nc5ccccc5nc4C)c(Cl)c3)c2cc1NC(=O)CCCN(C)C [Example 42] | < 100 |  | 100 to 1000 |  |
| CCOc1cc2ncc(C#N)c(Nc3ccc(OCc4cc(Cl)ccn4)c(Cl)c3)c2cc1NC(=O)CCCN(C)C [Example 2] | < 100 | < 100 |  |  |
| CCOc1cc2ncc(C#N)c(Nc3ccc(OCc4cc(OC)ccn4)c(Cl)c3)c2cc1NC(=O)CCCN(C)C [Example 37] | < 100 |  | 100 to 1000 |  |
| CCOc1cc2ncc(C#N)c(Nc3ccc(OCc4ncccc4C)cc3C)c2cc1NC(=O)/C=C/CN(C)C [Example 93] | < 100 | < 100 |  |  |
| Cc1cccnc1COc1ccc(Nc2c(C#N)cnc3ccc(NC(=O)CCCN(C)C)cc23)c(Cl)c1 [Example 144, N-(4-(2-chloro-4-((3-methylpyridin-2-yl)methoxy)phenylamino)-3-cyanoquinolin-6-yl)-4-(dimethylamino)butanamide] |  |  | 100 to 1000 | 100 to 1000 |
| CCOc1cc2ncc(C#N)c(Nc3ccc(OCc4ncccc4C(F)(F)F)cc3Cl)c2cc1NC(=O)CCCN(C)C [Example 81] | < 100 | < 100 |  |  |
| CCOc1cc2ncc(C#N)c(Nc3ccc(OCc4ncccc4C)c(C)c3C)c2cc1NC(=O)CCCN(C)C [Example 33] | < 100 | < 100 |  |  |
| CCOc1cc2ncc(C#N)c(Nc3cc(C)c(OCc4ncccc4C)c(C)c3)c2cc1NC(=O)CCCN(C)C [Example 32] | < 100 |  | 100 to 1000 |  |
| CCOc1cc2ncc(C#N)c(Nc3ccc(OCc4cccc(OC)n4)c(Cl)c3)c2cc1NC(=O)CCCN(C)C [Example 6] |  |  | 100 to 1000 | 100 to 1000 |
| CCOc1cc2ncc(C#N)c(Nc3ccc(OCc4ncccc4Cl)c(Cl)c3)c2cc1NC(=O)CCCN(C)C [Example 35] | < 100 | < 100 |  |  |
| CCOc1cc2ncc(C#N)c(Nc3ccc(OCc4ncccc4C)c(C)c3)c2cc1NC(=O)CCCN(C)C [Example 21] | < 100 |  | 100 to 1000 |  |
| CCOc1cc2ncc(C#N)c(Nc3ccc(OCc4ccccn4)c(Cl)c3)c2cc1NC(=O)CCCN1CCOCC1 [Example 99] | 100 to 1000 |  | 100 to 1000 |  |
| CCOc1cc2ncc(C#N)c(Nc3ccc(OCc4ncccc4C)c(Cl)c3)c2cc1NC(=O)/C=C/CN(C)C [Example 90, (E)-N-(4-(3-chloro-4-((3-methylpyridin-2-yl)methoxy)phenylamino)-3-cyano-7-ethoxyquinolin-6-yl)-4-(dimethylamino)but-2-enamide] | < 100 | < 100 |  |  |
| CCOc1cc2ncc(C#N)c(Nc3ccc(OCc4ncccc4C)c(Cl)c3)c2cc1NC(=O)CCCN(C)C [Example 1] | < 100 | < 100 |  |  |
| CCOc1cc2ncc(C#N)c(Nc3ccc(OCc4ncccc4C)cc3)c2cc1NC(=O)CCCN(C)C [Example 20] | < 100 |  | 100 to 1000 |  |
| CCOc1cc2ncc(C#N)c(Nc3ccc(OCc4nccn4CC)c(Cl)c3)c2cc1NC(=O)CCCN(C)C [Example 38] | 100 to 1000 |  | 100 to 1000 |  |
| CCOc1cc2ncc(C=O)c(Nc3ccc(OCc4ncccc4C)cc3Cl)c2cc1NC(=O)CCCN(C)C [Example 145, N-(4-(2-chloro-4-((3-methylpyridin-2-yl)methoxy)phenylamino)-7-ethoxy-3-formylquinolin-6-yl)-4-(dimethylamino)butanamide] |  |  | 1000 to 10000 | 1000 to 10000 |
| CCOc1cc2ncc(C#N)c(Nc3ccc(OCc4ccc(Cl)cn4)c(Cl)c3)c2cc1NC(=O)CCCN(C)C [Example 14] |  |  | 100 to 1000 | 100 to 1000 |
| CCOc1cc2ncc(C#N)c(Nc3cccc(Cl)c3)c2cc1NC(C)=O [Example 127] | < 100 | < 100 |  |  |
| CCOc1cc2ncc(C#N)c(Nc3ccc(OCc4cccc(C#N)n4)c(Cl)c3)c2cc1NC(=O)CCCN(C)C [Example 5] | < 100 |  | 100 to 1000 |  |
| CCOc1cc2ncc(C#N)c(Nc3ccc(OCc4ncccc4C(F)(F)F)c(Cl)c3)c2cc1NC(=O)CCCN(C)C [Example 17] | < 100 | < 100 |  |  |

— patent US10774068B2, “Composition and methods for inhibiting mammalian sterile 20-like kinase 1” (The Scripps Research Institute, priority 2015, dated 2020)
